Data taken from ChEMBL document CHEMBL5608215, “Development of amphipathic derivatives of thymol and carvacrol as potent broad-spectrum antibacterial agents” (Eur J Med Chem, 2024).

Legend:
Format in all cases: functional
Escherichia coli = experiment: Antibacterial activity against Escherichia coli ATCC25922 by CLSI based serial dilution method
Staphylococcus aureus [1] = experiment: Antibacterial activity against methicillin-resistant Staphylococcus aureus 21-5 by CLSI based serial dilution method
Enterococcus faecalis = experiment: Antibacterial activity against Enterococcus faecalis ATCC29212 by CLSI based serial dilution method
Pseudomonas aeruginosa = experiment: Antibacterial activity against Pseudomonas aeruginosa ATCC27853 by CLSI based serial dilution method
Staphylococcus aureus [2] = experiment: Antibacterial activity against Staphylococcus aureus ATCC29213 by CLSI based serial dilution method
Enterococcus = experiment: Antibacterial activity against vancomycin-resistant Enterococcus ATCC51299 by CLSI based serial dilution method

Row | Structure (SMILES) | MIC (Escherichia coli) | MIC (Staphylococcus aureus [1]) | MIC (Enterococcus faecalis) | MIC (Pseudomonas aeruginosa) | MIC (Staphylococcus aureus [2]) | MIC (Enterococcus)
1 | CCCNC(=O)C[N+](C)(C)CCCCCOc1cc(C)ccc1C(C)C.[Br-] | 128 µg/mL | 32 µg/mL | 64 µg/mL | > 128 µg/mL | 32 µg/mL | 128 µg/mL
2 | Cc1ccc(C(C)C)cc1OCCC[N+](C)(C)CC(=O)N(CC(C)C)CC(C)C.[Br-] | 64 µg/mL | 16 µg/mL | 16 µg/mL | > 128 µg/mL | 4 µg/mL | 16 µg/mL
3 | Cc1ccc(C(C)C)c(OCCCCC[N+](C)(C)CC(=O)N2CCSCC2)c1.[Br-] | 128 µg/mL | 32 µg/mL | 32 µg/mL | > 128 µg/mL | 32 µg/mL | 128 µg/mL
4 | CCCCNC(=O)C[N+](C)(C)CCCCOc1cc(C(C)C)ccc1C.[Br-] | 64 µg/mL | 64 µg/mL | 32 µg/mL | > 128 µg/mL | 16 µg/mL | 64 µg/mL
5 | Cc1ccc(C(C)C)c(OCCCCC[N+](C)(C)CC(=O)N(CC(C)C)CC(C)C)c1.[Br-] | 32 µg/mL | 2 µg/mL | 4 µg/mL | 128 µg/mL | 2 µg/mL | 8 µg/mL
6 | Cc1ccc(C(C)C)c(OCCCC[N+](C)(C)CC(=O)N(CC(C)C)CC(C)C)c1.[Br-] | 64 µg/mL | 4 µg/mL | 8 µg/mL | > 128 µg/mL | 4 µg/mL | 16 µg/mL
7 | Cc1ccc(C(C)C)c(OCCCCC[N+](C)(C)CC(=O)N(C(C)C)C(C)C)c1.[Br-] | 64 µg/mL | 2 µg/mL | 8 µg/mL | > 128 µg/mL | 4 µg/mL | 16 µg/mL
8 | CCCCCCNC(=O)C[N+](C)(C)CCCCCOc1cc(C)ccc1C(C)C.[Br-] | 8 µg/mL | 2 µg/mL | 2 µg/mL | 32 µg/mL | 2 µg/mL | 4 µg/mL
9 | CCCNC(=O)C[N+](C)(C)CCCOc1cc(C(C)C)ccc1C.[Br-] | > 128 µg/mL | > 128 µg/mL | 128 µg/mL | > 128 µg/mL | 128 µg/mL | > 128 µg/mL
10 | CCCCCNC(=O)C[N+](C)(C)CCCCCOc1cc(C(C)C)ccc1C.[Br-] | 16 µg/mL | 8 µg/mL | 8 µg/mL | 64 µg/mL | 4 µg/mL | 16 µg/mL
11 | Cc1ccc(C(C)C)c(OCCCC[N+](C)(C)CC(=O)N(C(C)C)C(C)C)c1.[Br-] | 128 µg/mL | 16 µg/mL | 16 µg/mL | > 128 µg/mL | 8 µg/mL | 32 µg/mL
12 | CCCCCCCNC(=O)C[N+](C)(C)CCCCCOc1cc(C)ccc1C(C)C.[Br-] | 16 µg/mL | 16 µg/mL | 4 µg/mL | 32 µg/mL | 4 µg/mL | 8 µg/mL
13 | Cc1ccc(C(C)C)c(OCCCC[N+](C)(C)CC(=O)N2CCSCC2)c1.[Br-] | > 128 µg/mL | 64 µg/mL | 64 µg/mL | > 128 µg/mL | 64 µg/mL | > 128 µg/mL
14 | CCCCN(CCCC)C(=O)C[N+](C)(C)CCCCCOc1cc(C)ccc1C(C)C.[Br-] | 32 µg/mL | 2 µg/mL | 4 µg/mL | 128 µg/mL | 2 µg/mL | 8 µg/mL
15 | CCCCCNC(=O)C[N+](C)(C)CCCOc1cc(C(C)C)ccc1C.[Br-] | 32 µg/mL | 32 µg/mL | 16 µg/mL | 128 µg/mL | 8 µg/mL | 32 µg/mL
16 | CCCCCCN(CCCCCC)C(=O)C[N+](C)(C)CCCCCOc1cc(C(C)C)ccc1C.[Br-] | 8 µg/mL | 16 µg/mL | 1 µg/mL | 16 µg/mL | 1 µg/mL | 1 µg/mL
17 | CCCN(CCC)C(=O)C[N+](C)(C)CCCCOc1cc(C)ccc1C(C)C.[Br-] | 128 µg/mL | 16 µg/mL | 32 µg/mL | > 128 µg/mL | 8 µg/mL | 64 µg/mL
18 | CCCCCCN(CCCCCC)C(=O)C[N+](C)(C)CCCCCOc1cc(C)ccc1C(C)C.[Br-] | > 128 µg/mL | > 128 µg/mL | > 128 µg/mL | > 128 µg/mL | > 128 µg/mL | > 128 µg/mL
19 | CCCCNC(=O)C[N+](C)(C)CCCCOc1cc(C)ccc1C(C)C.[Br-] | 128 µg/mL | 16 µg/mL | 64 µg/mL | > 128 µg/mL | 16 µg/mL | 128 µg/mL
20 | CCCN(CCC)C(=O)C[N+](C)(C)CCCCCOc1cc(C(C)C)ccc1C.[Br-] | 64 µg/mL | 16 µg/mL | 8 µg/mL | > 128 µg/mL | 8 µg/mL | 16 µg/mL
21 | Cc1ccc(C(C)C)cc1OCCC[N+](C)(C)CC(=O)N(C(C)C)C(C)C.[Br-] | 128 µg/mL | 64 µg/mL | 32 µg/mL | > 128 µg/mL | 16 µg/mL | 32 µg/mL
22 | CCCNC(=O)C[N+](C)(C)CCCCCOc1cc(C(C)C)ccc1C.[Br-] | 128 µg/mL | 128 µg/mL | 64 µg/mL | > 128 µg/mL | 32 µg/mL | 128 µg/mL
